Laboratory results as given in patent US20250353898A1, “SERPIN PEPTIDE DERIVATIVES AND METHODS OF USING THE SAME” (priority 2022, published 2025).
Entries after “also recorded” stand apart in the source; their conditions may differ. Positions of bridges follow the written chain, without caps; N, C: chain ends. Non-standard residues stand in square brackets, D forms with d. No end group written: not given here. Nle = CCCC[C@H](N)C(=O)O; dDap = NC[C@@H](N)C(=O)O; Dap = NC[C@H](N)C(=O)O; Nal = naphthylalanine

What was measured:
NFκB = NFκB reporter assay (SEAP) in THP1-XBlue-MD2-CD14 cells after LPS; type: cell-based; conditions: for NFκB inhibition activity: 50 μg/ml, LPS 5 ng/ml overnight, compared to SP163M (and SP22); for activity in reducing NFκB activation: LPS 5 ng/ml 24 hours; for EC50 NFκB: NFκB reporter cells, LPS 5 ng/ml
Description: The NFκB inducible Secreted Embryonic Alkaline Phosphatase (SEAP) was measured in the supernatant and read for absorbance.
(§1) Various SERPIN peptide derivatives were screened in vitro for their ability to reduce TNFα and NFκB secretion via LRP-1 activation. The NFκB reporter cells (THP1-XBlue-MD2-CD14 cells) were treated with each peptide derivative at various concentrations, up to 100 μg/ml before being insulted with LPS (5 ng/ml) and incubated overnight. The NFκB inducible Secreted Embryonic Alkaline Phosphatase (SEAP) was measured in the supernatant and read for absorbance. IMG Microglial cells were treated with each peptide derivative at various concentrations, up to 100 μg/ml before LPS (100 ng/ml) stimulation for 24 hours. An ELISA was used to measure TNFα in the supernatant ([…]).

TNFα = TNFα secretion in IMG microglial cells after LPS (ELISA); type: cell-based; conditions: for activity in reducing TNFα: FIG. 6A/7, up to 50 μg/mL, versus SP163M, SA7; for activity in reducing TNFα / activity in reducing TNFα activation: LPS 100 ng/ml 24 hours; for activity in reducing TNFα activation: A1-A15 screen, 50 or 100 μg/ml, FIG. 5; for EC50 TNFα: IMG microglial cells, LPS 100 ng/ml, 24 hours
Description: In the NFκB reporter cells, the NFκB inducible Secreted Embryonic Alkaline Phosphatase (SEAP) was measured in the supernatant. TNFα secretion in the supernatant was measured via ELISA.
as §1

IL-6 = IL-6 secretion in IMG microglial cells after LPS (ELISA); type: cell-based; conditions: for EC50 IL-6: IMG microglial cells, LPS 100 ng/ml, 24 hours
[1] = test system: NFκB reporter cells or IMG microglial cells; assay: Cytotoxicity assay (CellTiter-Glo Luminescent Cell Viability Assay); conditions: up to 12.5 μg/ml, 24 hours, NFκB reporter cells and IMG microglial cells, FIG. 11
Description: IMG cells were treated with peptide derivatives at concentrations at or exceeding those tested for the activity assays (FIGS. 5-7) for 24 hours.

[2] = test system: OVA induced allergic asthma; assay: OVA induced allergic asthma mouse model, lung homogenate; type: in vivo, mice
Text: Infiltration of immune cells into the lung likely account for the increase in total protein levels in the lung.

[3] = target: low-density lipoprotein receptor related protein-1 (LRP-1) on IMG microglial cells (UniProt Q91ZX7 20-4545, limits assumed); assay: cell-based or functional assay
Chain of low-density lipoprotein receptor related protein-1 (LRP-1) on IMG microglial cells (Q91ZX7 20-4545 limits assumed): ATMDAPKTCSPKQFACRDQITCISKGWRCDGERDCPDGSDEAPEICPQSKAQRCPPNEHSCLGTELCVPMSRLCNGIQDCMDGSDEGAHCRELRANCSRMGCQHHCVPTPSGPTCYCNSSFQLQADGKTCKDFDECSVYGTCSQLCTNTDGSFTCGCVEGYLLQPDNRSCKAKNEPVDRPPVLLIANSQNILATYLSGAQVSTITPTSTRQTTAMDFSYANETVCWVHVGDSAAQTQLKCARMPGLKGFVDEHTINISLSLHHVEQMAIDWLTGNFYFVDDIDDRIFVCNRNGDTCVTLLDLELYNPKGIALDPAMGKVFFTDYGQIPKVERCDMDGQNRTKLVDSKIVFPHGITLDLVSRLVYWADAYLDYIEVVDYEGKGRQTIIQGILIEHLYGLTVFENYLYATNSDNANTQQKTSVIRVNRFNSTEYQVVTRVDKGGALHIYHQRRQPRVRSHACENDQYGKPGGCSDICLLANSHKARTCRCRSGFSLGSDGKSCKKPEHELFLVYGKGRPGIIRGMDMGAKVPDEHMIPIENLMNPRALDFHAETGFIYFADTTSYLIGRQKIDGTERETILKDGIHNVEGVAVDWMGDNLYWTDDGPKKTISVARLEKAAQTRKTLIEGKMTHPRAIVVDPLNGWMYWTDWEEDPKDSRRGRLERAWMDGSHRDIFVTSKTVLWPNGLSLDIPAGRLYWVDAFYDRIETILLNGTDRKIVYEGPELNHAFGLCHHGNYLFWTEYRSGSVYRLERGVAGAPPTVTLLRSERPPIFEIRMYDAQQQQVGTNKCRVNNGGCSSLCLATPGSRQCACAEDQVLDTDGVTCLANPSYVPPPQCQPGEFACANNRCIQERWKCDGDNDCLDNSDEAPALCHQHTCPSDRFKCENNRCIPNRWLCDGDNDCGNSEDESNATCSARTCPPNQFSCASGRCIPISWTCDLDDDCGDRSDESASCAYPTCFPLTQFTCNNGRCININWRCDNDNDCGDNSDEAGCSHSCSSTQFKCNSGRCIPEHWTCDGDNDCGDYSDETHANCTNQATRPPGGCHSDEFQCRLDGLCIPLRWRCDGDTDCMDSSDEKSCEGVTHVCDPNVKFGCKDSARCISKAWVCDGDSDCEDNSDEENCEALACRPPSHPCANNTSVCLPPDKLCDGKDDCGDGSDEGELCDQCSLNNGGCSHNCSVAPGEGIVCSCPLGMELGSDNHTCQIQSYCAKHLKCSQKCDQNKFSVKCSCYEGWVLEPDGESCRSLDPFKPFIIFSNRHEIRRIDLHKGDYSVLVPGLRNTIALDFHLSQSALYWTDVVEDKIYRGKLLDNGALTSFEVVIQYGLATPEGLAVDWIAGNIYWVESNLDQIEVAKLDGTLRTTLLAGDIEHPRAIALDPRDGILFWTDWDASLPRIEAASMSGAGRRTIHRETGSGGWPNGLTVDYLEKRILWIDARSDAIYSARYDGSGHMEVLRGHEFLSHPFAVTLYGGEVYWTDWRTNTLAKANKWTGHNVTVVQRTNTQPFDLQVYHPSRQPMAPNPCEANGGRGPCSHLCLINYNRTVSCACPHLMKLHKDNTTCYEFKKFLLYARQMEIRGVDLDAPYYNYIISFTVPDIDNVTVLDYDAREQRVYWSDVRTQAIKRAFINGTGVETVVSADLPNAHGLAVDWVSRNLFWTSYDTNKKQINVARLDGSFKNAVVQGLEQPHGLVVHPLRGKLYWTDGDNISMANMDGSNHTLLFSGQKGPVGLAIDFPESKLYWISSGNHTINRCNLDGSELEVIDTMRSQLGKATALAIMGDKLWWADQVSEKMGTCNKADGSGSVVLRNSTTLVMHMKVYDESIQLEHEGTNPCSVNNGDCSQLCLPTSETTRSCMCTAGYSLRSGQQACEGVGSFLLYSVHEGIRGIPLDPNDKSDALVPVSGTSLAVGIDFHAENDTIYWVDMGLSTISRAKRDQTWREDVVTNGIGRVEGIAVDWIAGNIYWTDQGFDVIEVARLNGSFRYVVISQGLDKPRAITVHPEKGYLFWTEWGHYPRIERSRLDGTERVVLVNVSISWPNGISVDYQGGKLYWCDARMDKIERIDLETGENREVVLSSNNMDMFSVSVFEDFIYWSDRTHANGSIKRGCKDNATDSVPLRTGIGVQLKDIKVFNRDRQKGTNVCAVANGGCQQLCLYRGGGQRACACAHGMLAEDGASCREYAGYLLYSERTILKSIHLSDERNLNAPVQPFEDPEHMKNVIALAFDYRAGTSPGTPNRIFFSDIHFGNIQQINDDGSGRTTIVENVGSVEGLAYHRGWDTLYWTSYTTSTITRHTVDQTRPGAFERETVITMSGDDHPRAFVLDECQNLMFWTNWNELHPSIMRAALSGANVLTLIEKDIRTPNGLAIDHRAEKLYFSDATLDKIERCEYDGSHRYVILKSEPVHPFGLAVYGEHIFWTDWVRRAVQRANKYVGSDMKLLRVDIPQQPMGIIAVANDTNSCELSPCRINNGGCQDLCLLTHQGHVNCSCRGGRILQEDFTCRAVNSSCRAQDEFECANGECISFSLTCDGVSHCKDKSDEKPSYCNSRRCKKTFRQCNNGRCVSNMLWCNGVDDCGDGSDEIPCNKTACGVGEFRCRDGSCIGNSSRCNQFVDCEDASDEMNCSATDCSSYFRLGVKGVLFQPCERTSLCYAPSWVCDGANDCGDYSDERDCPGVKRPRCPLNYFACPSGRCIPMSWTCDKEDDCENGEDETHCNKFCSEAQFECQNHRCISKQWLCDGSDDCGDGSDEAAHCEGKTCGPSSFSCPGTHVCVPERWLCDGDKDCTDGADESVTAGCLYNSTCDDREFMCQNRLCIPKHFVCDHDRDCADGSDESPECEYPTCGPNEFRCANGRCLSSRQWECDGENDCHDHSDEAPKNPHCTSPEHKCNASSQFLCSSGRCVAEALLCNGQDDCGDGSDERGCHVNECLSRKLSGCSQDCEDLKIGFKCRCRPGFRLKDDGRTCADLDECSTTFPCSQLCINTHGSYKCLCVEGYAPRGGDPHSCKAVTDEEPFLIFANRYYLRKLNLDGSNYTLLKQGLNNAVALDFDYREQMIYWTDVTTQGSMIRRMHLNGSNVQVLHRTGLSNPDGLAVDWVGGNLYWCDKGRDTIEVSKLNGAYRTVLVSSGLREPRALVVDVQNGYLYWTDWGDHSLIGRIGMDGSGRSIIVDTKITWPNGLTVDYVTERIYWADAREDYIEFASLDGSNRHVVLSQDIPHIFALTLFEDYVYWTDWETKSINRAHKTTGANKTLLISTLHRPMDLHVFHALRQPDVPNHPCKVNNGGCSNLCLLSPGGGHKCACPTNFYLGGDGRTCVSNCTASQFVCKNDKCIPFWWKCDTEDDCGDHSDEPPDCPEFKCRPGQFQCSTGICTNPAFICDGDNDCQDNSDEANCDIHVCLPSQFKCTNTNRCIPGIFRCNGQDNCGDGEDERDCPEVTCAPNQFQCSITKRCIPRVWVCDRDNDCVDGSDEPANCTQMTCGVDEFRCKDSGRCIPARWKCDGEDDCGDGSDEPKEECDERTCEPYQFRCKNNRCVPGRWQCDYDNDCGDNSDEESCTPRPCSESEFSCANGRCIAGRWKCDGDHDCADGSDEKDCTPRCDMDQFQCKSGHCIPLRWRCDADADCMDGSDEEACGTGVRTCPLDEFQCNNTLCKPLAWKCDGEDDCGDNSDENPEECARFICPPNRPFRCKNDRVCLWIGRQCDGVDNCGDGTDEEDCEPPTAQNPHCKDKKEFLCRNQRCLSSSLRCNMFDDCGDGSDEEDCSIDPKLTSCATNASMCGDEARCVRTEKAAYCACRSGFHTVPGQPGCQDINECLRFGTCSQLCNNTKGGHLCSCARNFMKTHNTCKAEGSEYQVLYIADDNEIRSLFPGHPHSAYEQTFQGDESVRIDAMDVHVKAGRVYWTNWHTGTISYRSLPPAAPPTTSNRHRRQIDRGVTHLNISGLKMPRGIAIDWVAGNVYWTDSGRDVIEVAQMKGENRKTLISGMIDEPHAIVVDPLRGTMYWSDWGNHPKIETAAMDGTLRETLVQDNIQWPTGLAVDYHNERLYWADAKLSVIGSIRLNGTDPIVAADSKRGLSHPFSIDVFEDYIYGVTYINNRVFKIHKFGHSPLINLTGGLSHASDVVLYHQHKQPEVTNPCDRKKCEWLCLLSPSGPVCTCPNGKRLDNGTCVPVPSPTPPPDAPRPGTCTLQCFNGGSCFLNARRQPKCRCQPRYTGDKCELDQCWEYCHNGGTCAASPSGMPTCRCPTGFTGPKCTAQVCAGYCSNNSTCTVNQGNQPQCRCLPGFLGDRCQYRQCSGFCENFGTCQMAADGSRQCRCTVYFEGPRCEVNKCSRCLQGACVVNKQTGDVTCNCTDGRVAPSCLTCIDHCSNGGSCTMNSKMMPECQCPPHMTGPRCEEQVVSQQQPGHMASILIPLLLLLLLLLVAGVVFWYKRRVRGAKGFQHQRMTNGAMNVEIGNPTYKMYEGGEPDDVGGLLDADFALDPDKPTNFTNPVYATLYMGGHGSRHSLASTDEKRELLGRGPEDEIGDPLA

[4] = target: low-density lipoprotein receptor related protein-1 (LRP-1) on THP1-XBlue-MD2-CD14 NFκB reporter cells (UniProt Q07954 20-4544); assay: cell-based or functional assay
serine protease TMPRSS2 = serine protease TMPRSS2 (UniProt O15393 1-492, limits assumed); assay: cell-based or functional assay
Chain of serine protease TMPRSS2 (O15393 whole entry): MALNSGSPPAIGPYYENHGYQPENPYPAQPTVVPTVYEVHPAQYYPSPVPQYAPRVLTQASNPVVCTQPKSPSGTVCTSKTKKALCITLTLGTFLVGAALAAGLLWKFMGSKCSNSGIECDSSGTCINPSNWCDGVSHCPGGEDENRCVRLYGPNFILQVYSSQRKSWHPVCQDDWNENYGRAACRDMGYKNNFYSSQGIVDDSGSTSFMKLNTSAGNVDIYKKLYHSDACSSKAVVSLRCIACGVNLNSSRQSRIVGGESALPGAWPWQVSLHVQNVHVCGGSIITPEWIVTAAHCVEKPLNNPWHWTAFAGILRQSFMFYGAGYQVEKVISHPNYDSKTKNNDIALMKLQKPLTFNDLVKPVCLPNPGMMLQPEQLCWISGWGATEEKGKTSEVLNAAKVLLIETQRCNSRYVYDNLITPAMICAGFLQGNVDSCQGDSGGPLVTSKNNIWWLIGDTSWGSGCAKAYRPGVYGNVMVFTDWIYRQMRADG

[5] = FIG. 6B/7, up to 50 μg/mL, versus SP163M, SA7

Molecule: Ac-HHHPFVFL[Nle]HHH [SA2]
- NFκB inhibition activity (NFκB): minimal NFκB inhibition activity

Molecule: HN-RRRFVFLD (cyclic) (not fully specified; cyclised or stapled) [Peptide A2-4]
- activity in reducing TNFα (TNFα): superior activities in reducing TNFα
- activity in reducing NFκB activation (NFκB; [5]): superior activities

Molecule: Ac-HHHPFVFLMHHH [SA1]
- NFκB inhibition activity (NFκB): minimal NFκB inhibition activity

Molecule: HN-RRRFVFL[Nle]D (cyclic) [Peptide A15]
- activity in reducing TNFα activation (TNFα): improved activities in reducing TNFα activation
- EC50 TNFα (TNFα): 36.75 µg/mL
- EC50 IL-6 (IL-6): 32.39 µg/mL
- EC50 NFκB (NFκB): 5.053 µg/mL

Molecule: Ac-RRRCFTFL[Nle]C (also: cyclic (positions not given here)) [Peptide A8]
- activity in reducing TNFα activation (TNFα): improved activities in reducing TNFα activation

Molecule: HN- RRRFT[Nal]L[dS]D (cyclic) [Peptide A3-15]
- cytotoxic effects [1]: no cytotoxic effects

Molecule: Ac-EEEVKFNKPFVFL[Nle]EEE [SA5]
- NFκB inhibition activity (NFκB): minimal NFκB inhibition activity

Molecule: Ac-RRRCPFVFL[Nle]CRRR (cysteine pairing not given here) [SA6]
- NFκB inhibition activity (NFκB): improved activity in NFκB inhibition

Molecule: HN- [rK]RRFT[Nal]]LD (cyclic) ([rK]RRFT[Nal]LD; lactam 1-8) [Peptide A3-2]
- cytotoxic effects [1]: no cytotoxic effects

Molecule: Ac-KKKPFVFL[Nle]KKK [SA4]
- NFκB inhibition activity (NFκB): minimal NFκB inhibition activity

Molecule: HN-RRRFT[Nal]L[Nle]D (cyclic) [Peptide A2-2]
- activity in reducing TNFα (TNFα): superior activities in reducing TNFα
- activity in reducing NFκB activation (NFκB; [5]): superior activities

Molecule: HN-RRRFVFL[dS]D (cyclic) (RRRFVFLSD; not fully specified; D-residues; cyclised or stapled) [Peptide A2-5]
- TSLP level in lung homogenate ([2]; compared to ova-induced vehicle treated mice, p=0.026): significantly lower levels of TSLP
- total protein levels in the lung ([2]; compared to vehicle treated animals, p<0.005): significantly decreased
- TH-2 mediated cytokines IL-5, IL-4 and IL-13 in lung tissue ([2]; compared with vehicle treated mice): reduction of TH-2 mediated cytokines IL-5, IL-4 and IL-13
- activity in reducing TNFα (TNFα): superior activities in reducing TNFα
- activity in reducing NFκB activation (NFκB; [5]): superior activities

Molecule: HN- RRRFT[Nal]]LD (cyclic) (cyclo(RRRFT[Nal]LD)) [Peptide A3-1]
- cytotoxic effects [1]: no cytotoxic effects

Molecule: HN- RRRFTWL[dS]D (cyclic) (not fully specified (bridges); printed as HN- RRRFTWL[dS]D (cyclic); also: cyclic, mode of cyclisation not given here) [Peptide A3-16]
- cytotoxic effects [1]: no cytotoxic effects

Molecule: HN- RRRFVFL[dDap]D (cyclic) (not fully specified (bridges); printed as HN- RRRFVFL[dDap]D (cyclic); also: cyclic, ring not given here) [Peptide A3-10]
- activity in reducing NFκB activation (NFκB; FIG. 9, 1.56 to 12.5 μg/ml): superior activities in reducing NFκB activation

Molecule: Ac-RRRPFVFL[Nle]RRR [SA3]
- NFκB inhibition activity (NFκB): improved activity in NFκB inhibition; also recorded: more effective in reducing NFκB activation

Molecule: Ac- RRR[Dap]FT[Nal]L[Nle]D (cyclic) [Peptide A2-1]
- activity in reducing TNFα (TNFα): superior activities in reducing TNFα
- EC50 TNFα (TNFα): 12.99 µg/mL
- EC50 IL-6 (IL-6): 9.644 µg/mL
- activity in reducing NFκB activation (NFκB; [5]): superior activities
- EC50 NFκB (NFκB): 5.77 µg/mL

Molecule: HN- RRRAT[Nal]L[NIe]D (cyclic) [Peptide A3-14]
- EC50 TNFα (TNFα): 6 µg/mL
- cytotoxic effects [1]: no cytotoxic effects
- activity in reducing IL-6 secretion (IL-6; FIG. 10, up to 12.5 μg/ml, LPS 100 ng/ml 24 hours): superior activities in reducing IL-6 secretion
- EC50 IL-6 (IL-6): 0.605 µg/mL
- activity in reducing NFκB activation (NFκB; FIG. 9, 1.56 to 12.5 μg/ml): superior activities in reducing NFκB activation
- EC50 NFκB (NFκB): 3.775 µg/mL

Molecule: Ac- RRRCFV[Nal]L[Nle]C (cyclic) [Peptide A5]
- activity in reducing TNFα activation (TNFα): improved activities in reducing TNFα activation

Molecule: Ac-RRRDFVFL[Nle][Dap] (also: cyclic (positions not given here)) [Peptide A10]
- activity in reducing TNFα activation (TNFα): improved activities in reducing TNFα activation

B1: SERPIN peptide derivative A3-14, HN-RRRAT[Nal]L[Nle]D (cyclic) (peptide)
peptide: RRRAT[Nal]L[Nle]D
modifications: not fully specified (bridges); printed as HN- RRRAT[Nal]L[NIe]D (cyclic); also: cyclic, ring not given here
- EC50, IL-6 (IMG microglial cells, LPS, ELISA) [3]: 0.605 µg/mL
- EC50, TNFα (IMG microglial cells, LPS, ELISA) [3]: 6 µg/mL
- EC50, NFκB (reduction of NFκB activation, SEAP reporter cells, LPS) [4]: 3.77 µg/mL

B2: SERPIN peptide derivative A2-5, HN-RRRFVFL[dS]D (cyclic) (peptide)
peptide: RRRFVFLSD
modifications: not fully specified; D-Ser at position 8; cyclic (HN- at the N-terminus (so in the source))
- EC50, IL-6 (IMG microglial cells, LPS, ELISA) [3]: 1.4 µg/mL
- EC50, TNFα (IMG microglial cells, LPS, ELISA) [3]: 2.39 µg/mL
- EC50, NFκB (reduction of NFκB activation, SEAP reporter cells, LPS) [4]: 1.47 µg/mL

Molecule: RRRFVFLAD (not fully specified; cyclic (HN- at the N-terminus (so in the source))) [SERPIN peptide derivative A2-3, HN-RRRFVFLAD (cyclic)]
- EC50, IL-6 (IMG microglial cells, LPS, ELISA) [3]: 3.38 µg/mL
- EC50, TNFα (IMG microglial cells, LPS, ELISA) [3]: 11.8 µg/mL
- EC50, NFκB (reduction of NFκB activation, SEAP reporter cells, LPS) [4]: 2.65 µg/mL

Molecule: Ac-RRRKFT[Nal]LD (lactam 4-9) [SERPIN peptide derivative A3-7, Ac-RRRKFT[Nal]LD (cyclic)]
- EC50, IL-6 (IMG microglial cells, LPS, ELISA) [3]: 3.65 µg/mL
- EC50, NFκB (reduction of NFκB activation, SEAP reporter cells, LPS) [4]: 22.4 µg/mL

Molecule: Ac-RRR[Dap]FT[Nal]L[Nle]D [SERPIN peptide derivative A2-1, Ac-RRR[Dap]FT[Nal]L[Nle]D (cyclic)]
- EC50, IL-6 (IMG microglial cells, LPS, ELISA) [3]: 9.64 µg/mL
- EC50, TNFα (IMG microglial cells, LPS, ELISA) [3]: 13 µg/mL
- EC50, NFκB (reduction of NFκB activation, SEAP reporter cells, LPS) [4]: 5.77 µg/mL

Molecule: Ac-RRRCPFVFL[Nle]C (disulfide 4-11 (inferred)) [SERPIN peptide derivative SA7, Ac-RRRCPFVFL[Nle]C (cyclic)]
- IC50, protease TMPRSS2 activity in an overexpressing cell system (serine protease TMPRSS2): 0.083 µg/mL
- EC50, IL-6 (IMG microglial cells, LPS, ELISA) [3]: 318 µg/mL
- EC50, TNFα (IMG microglial cells, LPS, ELISA) [3]: 124 µg/mL
- EC50, NFκB (reduction of NFκB activation, SEAP reporter cells, LPS) [4]: 470 µg/mL

B3: SERPIN peptide derivative A3-10, HN-RRRFVFL[dDap]D (cyclic) (peptide)
peptide: RRRFVFLXD
modifications: not fully specified; D-Dap at position 8; cyclic (HN- at the N-terminus (so in the source))
- EC50, IL-6 (IMG microglial cells, LPS, ELISA) [3]: 58.5 µg/mL
- EC50, TNFα (IMG microglial cells, LPS, ELISA) [3]: 34.6 µg/mL
- EC50, NFκB (reduction of NFκB activation, SEAP reporter cells, LPS) [4]: 2.16 µg/mL

B4: SERPIN peptide derivative A15, HN-RRRFVFL[Nle]D (cyclic) (peptide)
peptide: RRRFVFLXD
modifications: not fully specified; Nle (norleucine) at position 8; cyclic: head-to-tail linker between the amino group of the N-terminal Arg and the side-chain carboxylic acid of the C-terminal Asp, ring closing length 12 C-C bonds
- EC50, IL-6 (IMG microglial cells, LPS, ELISA) [3]: 32.4 µg/mL
- EC50, TNFα (IMG microglial cells, LPS, ELISA) [3]: 36.8 µg/mL
- EC50, NFκB (reduction of NFκB activation, SEAP reporter cells, LPS) [4]: 5.05 µg/mL

Molecule: RRRFVFLD (not fully specified; cyclic (HN- at the N-terminus (so in the source))) [SERPIN peptide derivative A2-4, HN-RRRFVFLD (cyclic)]
- EC50, IL-6 (IMG microglial cells, LPS, ELISA) [3]: 11.3 µg/mL
- EC50, TNFα (IMG microglial cells, LPS, ELISA) [3]: 12.5 µg/mL
- EC50, NFκB (reduction of NFκB activation, SEAP reporter cells, LPS) [4]: 5.25 µg/mL

Molecule: VKFNKPFVFLMIEQNTK [SERPIN peptide SP16 (VKFNKPFVFLMIEQNTK)]
- EC50, TNFα (IMG microglial cells, LPS, ELISA) [3]: ~618 µg/mL
- EC50, NFκB (reduction of NFκB activation, SEAP reporter cells, LPS) [4]: 152 µg/mL
